Experimental data reported in ChEMBL document CHEMBL4270604, “Hedgehog pathway inhibitors of the acylthiourea and acylguanidine class show antitumor activity on colon cancer in vitro and in vivo” (Eur J Med Chem, 2018).
pIC50: −log10 of the molar value.

How the values were obtained:
LS180 = experiment: Antiproliferative activity against human LS180 cells after 72 hrs by sulforhodamine-B assay; assay type: functional, cell-based; conditions: for pIC50: LS180, 72 h
HT-1080 = experiment: Antiproliferative activity against human HT1080 cells after 72 hrs by sulforhodamine-B assay; assay type: functional, cell-based; conditions: for pIC50: HT-1080, 72 h
Homo sapiens = species: Homo sapiens; experiment: Substrate activity at recombinant human P-gp in membrane fraction assessed as increase in ATPase activity at 10 uM by luminescent P-gp-Glo assay relative to control
CYP1A2 [1] = biological target: T1, CYP1A2 (Homo sapiens, UniProt P05177); experiment: Inhibition of recombinant human CYP1A2 expressed in insect cell microsomes at 5 uM using Luciferin-ME as substrate preincubated for 10 mins followed by NADPH addition measured after 30 mins by luminometric method; assay type: ADME; conditions: probe Luciferin-ME
T1 sequence (P05177 whole entry): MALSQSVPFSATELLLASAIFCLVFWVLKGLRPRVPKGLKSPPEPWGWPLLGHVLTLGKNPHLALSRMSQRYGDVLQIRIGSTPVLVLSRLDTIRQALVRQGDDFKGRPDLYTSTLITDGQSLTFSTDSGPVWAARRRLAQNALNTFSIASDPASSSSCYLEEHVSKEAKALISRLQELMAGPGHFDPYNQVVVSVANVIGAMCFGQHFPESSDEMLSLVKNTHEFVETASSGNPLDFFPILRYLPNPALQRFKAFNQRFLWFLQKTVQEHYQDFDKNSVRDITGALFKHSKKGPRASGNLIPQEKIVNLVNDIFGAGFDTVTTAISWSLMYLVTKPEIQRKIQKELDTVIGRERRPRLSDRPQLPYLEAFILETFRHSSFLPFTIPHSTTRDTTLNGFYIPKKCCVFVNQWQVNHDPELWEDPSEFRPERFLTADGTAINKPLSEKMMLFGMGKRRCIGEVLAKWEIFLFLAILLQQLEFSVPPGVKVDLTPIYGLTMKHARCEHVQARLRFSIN

CYP1A2 [2] = biological target: T1, CYP1A2; experiment: Inhibition of recombinant human CYP1A2 expressed in insect cell microsomes at 10 uM using Luciferin-ME as substrate preincubated for 10 mins followed by NADPH addition measured after 30 mins by luminometric method; assay type: ADME; conditions: probe Luciferin-ME
CYP3A4 [3] = biological target: T2, CYP3A4 (Homo sapiens, UniProt P08684); experiment: Inhibition of recombinant human CYP3A4 expressed in insect cell microsomes at 5 uM using Luciferin-IPA as substrate preincubated for 10 mins followed by NADPH addition measured after 10 mins by luminometric method; assay type: ADME; conditions: probe Luciferin-IPA
T2 sequence (P08684 whole entry): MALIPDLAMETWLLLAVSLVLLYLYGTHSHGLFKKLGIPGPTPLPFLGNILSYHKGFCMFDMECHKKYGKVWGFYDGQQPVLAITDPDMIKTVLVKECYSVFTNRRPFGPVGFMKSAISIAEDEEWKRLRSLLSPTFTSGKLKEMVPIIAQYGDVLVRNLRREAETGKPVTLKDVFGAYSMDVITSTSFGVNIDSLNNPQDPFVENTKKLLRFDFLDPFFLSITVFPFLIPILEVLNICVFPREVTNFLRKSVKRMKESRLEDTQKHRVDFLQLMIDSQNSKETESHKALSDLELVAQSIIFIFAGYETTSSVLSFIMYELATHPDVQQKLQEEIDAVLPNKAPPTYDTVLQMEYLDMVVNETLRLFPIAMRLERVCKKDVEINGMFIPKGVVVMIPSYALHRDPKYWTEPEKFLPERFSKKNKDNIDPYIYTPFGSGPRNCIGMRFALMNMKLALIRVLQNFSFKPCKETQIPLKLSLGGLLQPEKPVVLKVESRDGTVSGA

CYP3A4 [4] = biological target: T2, CYP3A4; experiment: Inhibition of recombinant human CYP3A4 expressed in insect cell microsomes at 10 uM using Luciferin-IPA as substrate preincubated for 10 mins followed by NADPH addition measured after 10 mins by luminometric method; assay type: ADME; conditions: probe Luciferin-IPA
CYP2C9 [5] = biological target: T3, CYP2C9 (Homo sapiens, UniProt P11712); experiment: Inhibition of recombinant human CYP2C9 expressed in insect cell microsomes at 5 uM using Luciferin-H as substrate preincubated for 30 mins followed by NADPH addition measured after 30 mins by luminometric method; assay type: ADME; conditions: probe Luciferin-H
T3 sequence (P11712 whole entry): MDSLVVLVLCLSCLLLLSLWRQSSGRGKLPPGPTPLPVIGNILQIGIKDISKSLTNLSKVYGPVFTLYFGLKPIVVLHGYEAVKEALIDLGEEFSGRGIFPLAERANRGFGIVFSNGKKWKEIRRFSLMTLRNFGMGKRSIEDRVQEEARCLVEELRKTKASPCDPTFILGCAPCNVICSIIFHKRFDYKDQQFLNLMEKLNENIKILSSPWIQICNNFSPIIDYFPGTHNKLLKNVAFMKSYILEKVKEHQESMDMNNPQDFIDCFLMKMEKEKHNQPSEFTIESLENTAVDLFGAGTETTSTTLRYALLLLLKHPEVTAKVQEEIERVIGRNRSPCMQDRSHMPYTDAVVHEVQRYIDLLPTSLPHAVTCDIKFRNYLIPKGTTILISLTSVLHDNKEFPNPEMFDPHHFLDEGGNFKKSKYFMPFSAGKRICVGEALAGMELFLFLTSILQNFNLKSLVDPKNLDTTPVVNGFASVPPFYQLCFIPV

CYP2C9 [6] = biological target: T3, CYP2C9; experiment: Inhibition of recombinant human CYP2C9 expressed in insect cell microsomes at 10 uM using Luciferin-H as substrate preincubated for 30 mins followed by NADPH addition measured after 30 mins by luminometric method; assay type: ADME; conditions: probe Luciferin-H
CYP2C19 [7] = biological target: T4, CYP2C19 (Homo sapiens, UniProt P33261); experiment: Inhibition of recombinant human CYP2C19 expressed in insect cell microsomes at 5 uM using Luciferin-H EGE as substrate preincubated for 20 mins followed by NADPH addition measured after 30 mins by luminometric method; assay type: ADME; conditions: probe Luciferin-H EGE
T4 sequence (P33261 whole entry): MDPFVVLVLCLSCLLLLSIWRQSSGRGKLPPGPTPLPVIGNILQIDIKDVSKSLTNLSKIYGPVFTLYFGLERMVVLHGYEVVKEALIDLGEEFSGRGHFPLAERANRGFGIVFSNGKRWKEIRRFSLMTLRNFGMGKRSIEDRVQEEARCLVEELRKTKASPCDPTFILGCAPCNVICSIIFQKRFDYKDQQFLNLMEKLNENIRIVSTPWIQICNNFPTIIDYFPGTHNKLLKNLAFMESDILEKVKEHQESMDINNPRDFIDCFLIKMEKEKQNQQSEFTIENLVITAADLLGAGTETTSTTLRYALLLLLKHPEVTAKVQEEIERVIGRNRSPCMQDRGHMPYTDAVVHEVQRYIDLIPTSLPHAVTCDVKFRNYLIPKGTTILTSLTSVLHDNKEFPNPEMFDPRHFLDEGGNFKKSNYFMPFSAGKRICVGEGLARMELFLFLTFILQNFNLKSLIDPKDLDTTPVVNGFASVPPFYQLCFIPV

CYP2C19 [8] = biological target: T4, CYP2C19; experiment: Inhibition of recombinant human CYP2C19 expressed in insect cell microsomes at 10 uM using Luciferin-H EGE as substrate preincubated for 20 mins followed by NADPH addition measured after 30 mins by luminometric method; assay type: ADME; conditions: probe Luciferin-H EGE
CYP2D6 [9] = biological target: T5, CYP2D6 (Homo sapiens, UniProt P10635); experiment: Inhibition of recombinant human CYP2D6 expressed in insect cell microsomes at 1 uM using Luciferin-ME EGE as substrate preincubated for 30 mins followed by NADPH addition measured after 45 mins by luminometric method; assay type: ADME; conditions: probe Luciferin-ME EGE
T5 sequence (P10635 whole entry): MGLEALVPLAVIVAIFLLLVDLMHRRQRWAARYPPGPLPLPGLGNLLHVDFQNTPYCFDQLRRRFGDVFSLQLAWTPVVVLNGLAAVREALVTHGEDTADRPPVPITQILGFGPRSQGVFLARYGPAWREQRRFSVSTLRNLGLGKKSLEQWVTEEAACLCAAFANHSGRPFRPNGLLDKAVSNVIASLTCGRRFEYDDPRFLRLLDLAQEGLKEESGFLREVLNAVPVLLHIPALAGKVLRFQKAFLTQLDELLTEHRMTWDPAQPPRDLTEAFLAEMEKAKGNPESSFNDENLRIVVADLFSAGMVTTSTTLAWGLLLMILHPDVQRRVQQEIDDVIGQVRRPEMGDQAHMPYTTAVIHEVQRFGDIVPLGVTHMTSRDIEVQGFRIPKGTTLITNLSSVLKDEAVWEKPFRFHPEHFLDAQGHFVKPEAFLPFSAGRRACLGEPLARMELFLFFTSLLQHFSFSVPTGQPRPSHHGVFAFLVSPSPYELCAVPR

CYP2D6 [10] = biological target: T5, CYP2D6; experiment: Inhibition of recombinant human CYP2D6 expressed in insect cell microsomes at 10 uM using Luciferin-ME EGE as substrate preincubated for 30 mins followed by NADPH addition measured after 45 mins by luminometric method; assay type: ADME; conditions: probe Luciferin-ME EGE
Cytochrome P450 3A4 = Cytochrome P450 3A4 (Homo sapiens, UniProt P08684); experiment: Inhibition of recombinant human CYP3A4 expressed in insect cell microsomes using Luciferin-IPA as substrate preincubated for 10 mins followed by NADPH addition measured after 10 mins by luminometric method; assay type: ADME; conditions: recombinant enzyme
Cytochrome P450 3A4, sequence (P08684 whole entry): as the sequence (P08684 whole entry) above

[11] = Drug recovery in mouse plasma at 37 degC after 120 mins by HPLC-MS/MS analysis; assay type: ADME, cell-free; conditions: read-out: Drug recovery
[12] = Tmax in CD1 mouse at 200 mg/kg, po administered as single dose by HPLC-MS/MS analysis; assay type: ADME, organism-based; conditions: in vivo
[13] = AUClast in CD1 mouse at 200 mg/kg, po administered as single dose by HPLC-MS/MS analysis; assay type: ADME, organism-based; design: dose 200 mg/kg, time 0 - last, route oral; conditions: in vivo
Mus musculus [14] = experiment: Tlast in CD1 mouse at 200 mg/kg, po administered as single dose by HPLC-MS/MS analysis; assay type: ADME, organism-based; conditions: in vivo
[15] = AUC (infinity) in CD1 mouse at 200 mg/kg, po administered as single dose by HPLC-MS/MS analysis; assay type: ADME, organism-based; design: dose 200 mg/kg, route oral, time infinity; conditions: in vivo
[16] = Apparent clearance in CD1 mouse at 200 mg/kg, po administered as single dose by HPLC-MS/MS analysis; assay type: ADME, organism-based; conditions: in vivo
[17] = biological target: T6, Coelenterazine h 2-monooxygenase (Renilla reniformis, UniProt P27652); experiment: Effect on Renilla reniformis luciferase; assay type: ADME
T6 sequence (P27652 whole entry): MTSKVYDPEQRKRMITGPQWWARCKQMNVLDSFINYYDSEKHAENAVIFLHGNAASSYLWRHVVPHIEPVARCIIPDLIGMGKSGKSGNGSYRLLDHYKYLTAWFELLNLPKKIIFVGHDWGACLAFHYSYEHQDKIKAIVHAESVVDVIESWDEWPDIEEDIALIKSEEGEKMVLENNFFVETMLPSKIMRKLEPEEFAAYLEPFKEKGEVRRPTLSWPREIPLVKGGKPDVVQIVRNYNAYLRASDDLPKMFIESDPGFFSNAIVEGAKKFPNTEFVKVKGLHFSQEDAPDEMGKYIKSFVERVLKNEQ

in vitro [18] = conditions: human, Caco-2
Description: Apparent permeability of the compound from apical to basolateral side in human Caco2 cells after 120 mins by LC-MS/MS analysis

in vitro [19] = conditions: human, Caco-2; remark: listed apart in the source
Description: Apparent permeability of the compound from apical to basolateral side in human Caco2 cells assessed as drug recovery after 120 mins by LC-MS/MS analysis

in vitro [20] = conditions: human, Caco-2; remark: listed apart in the source
Description: Apparent permeability of the compound from basolateral to apical side in human Caco2 cells assessed as drug recovery after 120 mins by LC-MS/MS analysis

in vitro [21] = conditions: human, Caco-2; remark: listed apart in the source
Description: Efflux ratio of apparent permeability from basolateral to apical over apical to basolateral side in human Caco2 cells after 120 mins by LC-MS/MS analysis

[22] = Inhibition of hedgehog signaling pathway in mouse Light2 cells stimulated with 100 nM SAG after 30 hrs by Gli-firefly luciferase reporter gene assay
Mus musculus [23] = species: Mus musculus; experiment: as above

pIC50 (HT-1080) | fold change (FC) (Homo sapiens) | inhibition at 0.5 h, 5 µM (CYP1A2 [1]) | inhibition at 0.5 h, 10 µM (CYP1A2 [2]) | inhibition at 10 min, 5 µM (CYP3A4 [3]) | inhibition at 10 min, 10 µM (CYP3A4 [4]) | inhibition at 0.5 h, 5 µM (CYP2C9 [5]) | inhibition at 0.5 h, 10 µM (CYP2C9 [6]) | inhibition at 0.5 h, 5 µM (CYP2C19 [7]) | inhibition at 0.5 h, 10 µM (CYP2C19 [8]) | inhibition at 0.75 h, 1 µM (CYP2D6 [9]) | inhibition at 0.75 h, 10 µM (CYP2D6 [10]) | inhibition (INH) (Cytochrome P450 3A4) | remaining at 2 h [11] | Tmax [12] | AUC(0-t) [13] | Tlast (Mus musculus [14]) | Compound | Activity (LS180) | pIC50 (LS180) | Activity (HT-1080) | other results
4.54 | 4.8 | 64% | 64% | 76% | 87% | 71% | 74% | 79% | 81% | 19% | 23% | Dose-dependent effect | 72.1% | 2 h | 237 µg·h/mL | 24 h | COc1cc(C(=O)NC(=N)Nc2ccc(C)c(NC(=O)c3ccc(-c4ccccc4)cc3)c2)cc(OC)c1OC.Cl | Dose-dependent effect | 5.01 | Dose-dependent effect | AUC(0-inf) [15]: 237 µg·h/mL; CL/F [16]: 14 mL/min/kg; Activity [17]: Not Active; Papp A→B at 2 h (in vitro [18]): 0.428 ×10⁻⁶ cm/s; recovery at 2 h (in vitro [19]): 16.5%; recovery at 2 h (in vitro [20]): 31.9%; efflux ratio at 2 h (in vitro [21]): 1.52; pIC50 [22]: 7.15; inhibition (Mus musculus [23]): Dose-dependent effect
5.70 | 1.4 | 43% | 40% | 89% | 92% | 81% | 83% | 81% | 83% | 15% | 11% | Dose-dependent effect | 81.3% | 4 h | 137 µg·h/mL | 24 h | COc1cc(C(=O)NC(=N)Nc2ccc(C)c(NC(=O)c3ccc(CCc4ccccc4)cc3)c2)cc(OC)c1OC.Cl | Dose-dependent effect | 5.60 | Dose-dependent effect | AUC(0-inf) [15]: 137 µg·h/mL; CL/F [16]: 24.3 mL/min/kg; Activity [17]: Not Active; Papp A→B at 2 h (in vitro [18]): 0.701 ×10⁻⁶ cm/s; recovery at 2 h (in vitro [19]): 41.1%; recovery at 2 h (in vitro [20]): 44.6%; efflux ratio at 2 h (in vitro [21]): 1.05; pIC50 [22]: 7.70; inhibition (Mus musculus [23]): Dose-dependent effect
4.70 | 2.3 | 58% | 59% | 78% | 82% | 76% | 79% | 76% | 76% | 20% | 21% | Dose-dependent effect | 66.6% | 1 h | 223 µg·h/mL | 24 h | COc1cc(C(=O)NC(=N)Nc2ccc(C)c(NC(=O)c3ccc(-c4ccc(F)cc4)cc3)c2)cc(OC)c1OC.Cl | Dose-dependent effect | 5.09 | Dose-dependent effect | AUC(0-inf) [15]: 224 µg·h/mL; CL/F [16]: 14.9 mL/min/kg; Activity [17]: Not Active; Papp A→B at 2 h (in vitro [18]): 0.366 ×10⁻⁶ cm/s; recovery at 2 h (in vitro [19]): 33%; recovery at 2 h (in vitro [20]): 30.6%; efflux ratio at 2 h (in vitro [21]): 1.01; pIC50 [22]: 7.30; inhibition (Mus musculus [23]): Dose-dependent effect
